Experimental findings from patent US12064488B2, “Nitroxide containing amyloid binding agents for imaging and therapeutic uses” (The Regents of the University of California, priority 2015, dated 2024) are described below.

As a reminder, the EC50 is the concentration needed to bring the measured effect to its halfway point.

Assay [1] concerns the target T1, amyloid (AB) in 5xFAD mouse brain tissue (Homo sapiens, UniProt P05067).
T1 construct: produces elevated amyloid beta levels in the brain; from tissue; host or cells: brain of 5xFAD transgenic mice (400 µm coronal slices)
The assay can be described thus: EPR spectroscopy of brain slices labeled in vitro. As to conditions: 5xFAD brain tissue treated in vitro. It counts as binding. The text has this: Samples were loaded into a quartz cell and examined by electron paramagnetic resonance (EPR) spectroscopy. […] Thus, in agreement with results from the MRI measurements, the lack of EPR signal from the WT+SLF brain section excludes non-specific binding of SLF in these tissue samples. […] The broad EPR spectrum from the +SLF 5xFAD reflects a strongly immobilized spin probe, consistent with high affinity binding to a solidified matrix.

The target of assay [2] is T2, amyloid plaque (AB) in 5xFAD mouse brain slices (Homo sapiens, UniProt P05067).
T2 construct: produces elevated amyloid beta levels in the brain; from tissue; host or cells: brain of 5xFAD transgenic mice (400 µm coronal slices)
Description: T2/T2*-weighted MRI of coronal brain slices labeled in vitro with spin-labeled compound. As to conditions: 5xFAD brain slices/specimens incubated in vitro with compound. The procedure:
MR images of coronal brain slices (400 μm thick) were obtained from a transgenic AD mouse model (5xFAD) with and without exposure to HO-4160 nitroxide spin-labeled […] (SLF), where the SLF-negative sample was treated with DMSO vehicle equal to the SLF-exposed sample. Following the labeling period with either SLF or the DMSO vehicle control, the brain slices were imbedded into agarose and imaged by MRI. Measurements were made in three separate experiments, using slices from unique AD and wild type (WT) mice in each experiment.
5xFAD brain slices treated with SLF decrease in intensity to a mean value of 1.6±0.1×10^5, compared to the T2-weighted images of the untreated samples, with a mean value of 2.6±0.1×10^5. Evaluation of the two sets by the unpaired t-test supports a significant difference among these groups (p<0.01). With respect to T2*, there also is a significant (p<0.02) intensity difference between the two groups of 5xFAD specimens, with a mean intensity of 1.4±0.2×10^5 for the SLF-treated samples, and a mean intensity of 2.3±0.1×10^5 for the untreated samples. In addition, T2 and T2*-weighted imaging of corresponding slices from WT mice show no difference between the SLF-treated and SLF-negative (not shown) specimens.
Both T2 and T2* signal suppression was calculated in each of the three experiments. The average suppression values were calculated according to the equation: SS %=[(SIref−SI)/SIref]*100 where SI is the average signal intensity of the 5xFAD SLF+ section and SIref is the average signal intensity of the 5xFAD SLF− or WT SLF+ section. Calculation results are plotted in FIG. 7, where both the gray and white bars represent the suppression of MRI intensity found in the 5xFAD specimen following SLF treatment. The gray bars show signal suppression relative to the untreated 5xFAD brain, while the white bars compare the suppression relative to the SLF-treated specimens from WT mice. Relative to both controls, SLF generates ˜40% signal suppression for samples carrying a high amyloid-beta load. In the absence of SLF, the average intensity of the 5xFAD brain sections have a slightly lower T2/T2* MRI intensity than specimens from WT mice. This can be attributed to iron bound to deposits of AB, which has been previously observed in the MRI analyses of AD model mice (Vanhoutte et al. (2005); Jack et al. (2007); and Wadghiri et al. (2012)). Thus, the relative suppression is slightly higher when comparing the +SLF AD sample to the +SLF WT sample.

The test system of another assay is MC65 neuroblastoma cell. The assay can be described thus: MC65 assay: protection against AB toxicity (MTT cell viability). It counts as cell-based, human. As to conditions: MC65 cells, TC removal, 3 days. The text has this: The ability of agents to protect against AB toxicity can be measured according to their effect on the survivability of MC65 neuroblastoma cell (Maezawa et al. (2008) J. Neurochem. 104:457). In the MC65 model system, expression of the C-terminal region (C99) of the amyloid precursor protein (APP) is turned on in the absence of the transgene suppressor, tetracycline (TC). Upon APP-C99 induction (TC-), AB is generated after proteolysis by cellular γ-secretase […]. In the absence of protection, death of MC65 neuroblastoma cells results due to the intracellular accumulation of oligomeric AB (ABO). […] In Table 2 below, we report the ability of the SL-LRL1, SL-LRL2, SL-Res1, SL-Res2, and SL-Res3 compounds to protect against AB toxicity in the MC65 assay.
The cell culture model used for these studies was the human neuroblastoma cell line (MC65) equipped with conditional expression of the carboxyl-terminal 99 residues of the amyloid-beta precursor protein (APP-C99). AB is generated from APP-C99 after proteolysis by cellular γ-secretase. To induce cellular AB production, the transgene suppressor, tetracycline (TC), was removed from the media, as described previously (Maezawa et al. (2008)). Intracellular ABO starts to accumulate as early as 4 hours after TC removal. The compounds were added immediately after TC removal, and the cells were maintained for 3 days without media change before measuring cell viability. The cytotoxicity was determined on day 3 using a colorimetric MTT [3-(4,5-dimethylthiazol-2yl)-2,5-diphenyltetrazolium bromide] cell viability assay.

T2 sequence (P05067 672-713 limits assumed): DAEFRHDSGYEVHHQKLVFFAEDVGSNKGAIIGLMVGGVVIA
T1 sequence (P05067 672-713 limits assumed): as above

`Cc1c(C(N)=O)c(=O)oc2cc3c(cc12)nc(NCCNC(=O)C1CC(C)(C)N([O])C1(C)C)n3Cc1cccc(I)c1` (centres unmarked) [SL-LRL1, 3-(3-iodobenzyl)-8-methyl-6-oxo-2-((2-(2,2,5,5-tetramethyl-1-oxylpyrrolidine-3-carboxamido)ethyl)amino)-3,6-dihydrochromeno[6,7-d]imidazole-7-carboxamide Radical]: in assay [1], the “EPR signal / binding to brain tissue” value was “confirming the binding”. In addition, the “contrast in T2*-weighted imaging” value in assay [2] is “strong negative contrast”. The EC50 in the assay on MC65 neuroblastoma cell turned out to be 4.5 µM.
`CC1(C)CC(NC(=O)COc2cc(O)cc(/C=C/c3ccc(O)cc3)c2)C(C)(C)N1[O]` (centres unmarked) [SL-Res2, (E)-2-(3-hydroxy-5-(4-hydroxystyryl)phenoxy)-N-(2,2,5,5-tetramethyl-1-oxylpyrrolidin-3-yl)acetamide Radical]: the “contrast in T2*-weighted imaging” value in assay [2] is “ability to generate negative contrast”. Also, in the assay on MC65 neuroblastoma cell, the midpoint of the response, the EC50, lay at 0.68 µM.
The matching figures for `Cc1c(C(N)=O)c(=O)oc2cc3c(cc12)nc(NCC1=CC(C)(C)N([O])C1(C)C)n3Cc1cccc(I)c1` [SL-LRL2, 3-(3-iodobenzyl)-8-methyl-6-oxo-2-(((2,2,5,5-tetramethyl-1-oxyl-2,5-dihydro-1H-pyrrol-3-yl)methyl)amino)-3,6-dihydrochromeno[6,7-d]imidazole-7-carboxamide Radical]: “ability to generate negative contrast” and 3.5 µM.
For `CC1(C)C=C(COc2cc(O)cc(/C=C/c3ccc(O)cc3)c2)C(C)(C)N1[O]` [SL-Res1] the same measures were “ability to generate negative contrast” and 0.45 µM.
The matching figures for `CC1(C)C=C(C(=O)Oc2ccc(/C=C/c3cc(O)cc(O)c3)cc2)C(C)(C)N1[O]` [SL-Res3, (E)-4-(3,5-dihydroxystyryl)phenyl 2,2,5,5-tetramethyl-1-oxyl-2,5-dihydro-1H-pyrrole-3-carboxylate Radical]: “ability to generate negative contrast” and 0.41 µM.
